Data from PMC4858680, “A platinum-based hybrid drug design approach to circumvent acquired resistance to molecular targeted tyrosine kinase inhibitors” (Scientific Reports, 2016).

Tests used:
TYRO3 = molecular target: T1, TYRO3 (Homo sapiens, UniProt Q06418); type: binding; conditions: for Percent control: 10 μM
T1 construct: purchased DiscoveRx Corporation (KINOMEscan service)
T1 sequence (Q06418 41-890): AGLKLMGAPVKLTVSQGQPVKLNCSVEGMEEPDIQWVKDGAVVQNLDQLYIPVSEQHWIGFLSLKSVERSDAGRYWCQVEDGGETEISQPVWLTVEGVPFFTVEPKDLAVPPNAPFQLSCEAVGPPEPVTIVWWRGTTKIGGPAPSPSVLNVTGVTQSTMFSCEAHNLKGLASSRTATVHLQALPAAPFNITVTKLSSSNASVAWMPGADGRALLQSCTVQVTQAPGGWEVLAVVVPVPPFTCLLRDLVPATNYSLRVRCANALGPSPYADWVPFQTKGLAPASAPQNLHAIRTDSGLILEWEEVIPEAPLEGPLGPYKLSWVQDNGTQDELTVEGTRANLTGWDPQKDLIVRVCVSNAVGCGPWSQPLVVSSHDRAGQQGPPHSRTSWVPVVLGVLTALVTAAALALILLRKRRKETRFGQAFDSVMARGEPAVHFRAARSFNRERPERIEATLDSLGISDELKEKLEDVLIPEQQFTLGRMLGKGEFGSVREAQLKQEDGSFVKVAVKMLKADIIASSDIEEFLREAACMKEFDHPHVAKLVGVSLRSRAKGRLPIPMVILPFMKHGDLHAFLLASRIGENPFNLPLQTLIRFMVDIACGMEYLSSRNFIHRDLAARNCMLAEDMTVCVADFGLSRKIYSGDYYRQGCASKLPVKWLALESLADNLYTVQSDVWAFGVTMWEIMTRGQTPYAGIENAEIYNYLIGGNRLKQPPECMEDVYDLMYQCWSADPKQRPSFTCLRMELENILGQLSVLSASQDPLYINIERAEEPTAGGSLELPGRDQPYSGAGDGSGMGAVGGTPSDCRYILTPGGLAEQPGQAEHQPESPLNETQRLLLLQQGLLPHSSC

YES = molecular target: T2, YES (Homo sapiens, UniProt P07947); type: binding; conditions: for Percent control: 10 μM
T2 construct: purchased DiscoveRx Corporation (KINOMEscan service)
T2 sequence (P07947 whole entry): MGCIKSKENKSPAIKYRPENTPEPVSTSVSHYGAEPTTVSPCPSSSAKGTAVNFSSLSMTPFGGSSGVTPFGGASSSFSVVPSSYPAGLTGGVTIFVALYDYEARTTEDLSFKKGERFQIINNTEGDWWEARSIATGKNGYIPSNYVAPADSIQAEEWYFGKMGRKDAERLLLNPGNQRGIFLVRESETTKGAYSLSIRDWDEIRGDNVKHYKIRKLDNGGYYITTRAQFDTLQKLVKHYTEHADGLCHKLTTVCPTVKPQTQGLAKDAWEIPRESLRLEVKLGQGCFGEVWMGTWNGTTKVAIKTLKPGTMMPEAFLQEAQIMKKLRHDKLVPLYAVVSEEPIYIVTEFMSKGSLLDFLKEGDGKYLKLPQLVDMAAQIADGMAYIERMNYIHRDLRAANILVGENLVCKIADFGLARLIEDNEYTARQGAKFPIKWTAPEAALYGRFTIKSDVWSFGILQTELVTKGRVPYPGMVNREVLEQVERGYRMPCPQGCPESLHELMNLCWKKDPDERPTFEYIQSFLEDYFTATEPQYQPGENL

FYN = FYN (Homo sapiens, UniProt P06241); conditions: 10 μM
FYN, sequence (P06241 whole entry): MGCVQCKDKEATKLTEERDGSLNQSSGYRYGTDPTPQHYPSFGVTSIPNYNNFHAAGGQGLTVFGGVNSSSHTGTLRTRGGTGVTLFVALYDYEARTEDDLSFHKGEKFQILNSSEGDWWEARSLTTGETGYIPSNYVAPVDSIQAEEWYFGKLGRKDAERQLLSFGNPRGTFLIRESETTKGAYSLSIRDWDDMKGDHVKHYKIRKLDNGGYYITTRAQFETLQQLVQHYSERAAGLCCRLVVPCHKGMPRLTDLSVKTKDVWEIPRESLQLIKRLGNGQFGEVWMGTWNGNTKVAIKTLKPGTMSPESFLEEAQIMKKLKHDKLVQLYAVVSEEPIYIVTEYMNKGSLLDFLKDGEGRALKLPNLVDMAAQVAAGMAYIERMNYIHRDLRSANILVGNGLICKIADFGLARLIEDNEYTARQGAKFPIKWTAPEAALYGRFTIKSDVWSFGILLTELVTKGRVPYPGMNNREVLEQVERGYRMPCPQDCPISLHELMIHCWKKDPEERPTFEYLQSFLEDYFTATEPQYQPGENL

PDGFRA [1] = molecular target: T3, PDGFRA (Homo sapiens, UniProt P16234); conditions: 10 μM
T3 sequence (P16234 24-1089): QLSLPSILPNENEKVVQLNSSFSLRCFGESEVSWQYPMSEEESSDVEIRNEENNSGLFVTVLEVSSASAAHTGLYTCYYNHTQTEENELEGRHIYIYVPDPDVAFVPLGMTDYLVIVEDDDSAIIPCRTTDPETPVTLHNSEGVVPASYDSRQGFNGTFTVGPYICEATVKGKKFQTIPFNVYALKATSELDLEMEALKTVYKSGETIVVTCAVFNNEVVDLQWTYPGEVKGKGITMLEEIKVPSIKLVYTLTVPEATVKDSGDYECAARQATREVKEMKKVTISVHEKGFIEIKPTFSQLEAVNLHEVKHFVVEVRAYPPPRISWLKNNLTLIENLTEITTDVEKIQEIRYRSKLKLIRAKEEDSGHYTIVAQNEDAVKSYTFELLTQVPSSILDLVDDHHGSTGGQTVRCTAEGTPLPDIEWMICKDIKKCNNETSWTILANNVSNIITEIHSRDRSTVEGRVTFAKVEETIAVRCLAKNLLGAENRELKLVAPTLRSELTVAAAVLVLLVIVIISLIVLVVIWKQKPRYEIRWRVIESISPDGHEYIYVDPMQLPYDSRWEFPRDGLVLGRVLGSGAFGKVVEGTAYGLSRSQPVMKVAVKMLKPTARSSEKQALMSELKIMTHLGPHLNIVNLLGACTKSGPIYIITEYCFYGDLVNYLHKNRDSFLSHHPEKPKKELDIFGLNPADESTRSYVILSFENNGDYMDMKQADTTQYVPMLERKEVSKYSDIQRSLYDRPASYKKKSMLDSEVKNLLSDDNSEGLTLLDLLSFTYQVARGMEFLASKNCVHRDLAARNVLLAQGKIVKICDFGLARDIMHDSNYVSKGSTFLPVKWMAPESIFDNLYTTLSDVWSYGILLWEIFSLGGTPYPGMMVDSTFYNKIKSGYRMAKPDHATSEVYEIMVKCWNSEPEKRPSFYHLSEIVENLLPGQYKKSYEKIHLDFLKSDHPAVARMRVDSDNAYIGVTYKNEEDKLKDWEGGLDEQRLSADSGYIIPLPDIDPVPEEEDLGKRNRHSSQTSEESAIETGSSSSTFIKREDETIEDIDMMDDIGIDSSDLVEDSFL

DDR1 = molecular target: T4, DDR1 (Homo sapiens, UniProt Q08345); type: binding; conditions: for Percent control: 10 μM
T4 construct: purchased DiscoveRx KINOMEscan
T4 sequence (Q08345 19-913): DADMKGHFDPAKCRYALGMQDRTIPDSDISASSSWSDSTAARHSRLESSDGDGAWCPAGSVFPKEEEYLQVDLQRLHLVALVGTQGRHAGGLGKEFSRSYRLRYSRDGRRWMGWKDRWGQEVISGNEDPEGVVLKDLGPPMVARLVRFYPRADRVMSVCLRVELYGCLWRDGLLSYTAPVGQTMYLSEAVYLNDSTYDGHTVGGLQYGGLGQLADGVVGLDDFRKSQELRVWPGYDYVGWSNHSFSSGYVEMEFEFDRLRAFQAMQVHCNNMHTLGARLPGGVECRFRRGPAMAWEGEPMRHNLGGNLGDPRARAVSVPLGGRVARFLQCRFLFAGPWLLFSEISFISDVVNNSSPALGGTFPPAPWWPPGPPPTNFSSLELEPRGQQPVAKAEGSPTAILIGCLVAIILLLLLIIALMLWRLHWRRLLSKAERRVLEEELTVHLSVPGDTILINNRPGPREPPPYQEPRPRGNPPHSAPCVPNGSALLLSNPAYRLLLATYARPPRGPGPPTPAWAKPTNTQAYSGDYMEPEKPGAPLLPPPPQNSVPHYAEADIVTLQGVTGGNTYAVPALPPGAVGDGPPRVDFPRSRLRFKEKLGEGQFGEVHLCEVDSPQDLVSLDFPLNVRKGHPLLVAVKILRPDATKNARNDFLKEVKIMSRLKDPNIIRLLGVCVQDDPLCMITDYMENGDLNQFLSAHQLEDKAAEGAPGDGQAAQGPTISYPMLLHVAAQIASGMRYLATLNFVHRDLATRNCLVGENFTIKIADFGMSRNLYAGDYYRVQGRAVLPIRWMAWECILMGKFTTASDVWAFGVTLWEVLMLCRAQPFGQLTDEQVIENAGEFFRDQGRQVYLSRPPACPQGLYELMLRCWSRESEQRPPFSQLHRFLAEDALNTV

EGFR(L747-T751del,Sins) = type: binding; conditions: 10 μM
KIT(A829P) = KIT(A829P) (Homo sapiens, UniProt P10721, A829P); test: biochemical; conditions: read-out: Percent control
KIT(A829P), sequence (P10721 26-976 A829P): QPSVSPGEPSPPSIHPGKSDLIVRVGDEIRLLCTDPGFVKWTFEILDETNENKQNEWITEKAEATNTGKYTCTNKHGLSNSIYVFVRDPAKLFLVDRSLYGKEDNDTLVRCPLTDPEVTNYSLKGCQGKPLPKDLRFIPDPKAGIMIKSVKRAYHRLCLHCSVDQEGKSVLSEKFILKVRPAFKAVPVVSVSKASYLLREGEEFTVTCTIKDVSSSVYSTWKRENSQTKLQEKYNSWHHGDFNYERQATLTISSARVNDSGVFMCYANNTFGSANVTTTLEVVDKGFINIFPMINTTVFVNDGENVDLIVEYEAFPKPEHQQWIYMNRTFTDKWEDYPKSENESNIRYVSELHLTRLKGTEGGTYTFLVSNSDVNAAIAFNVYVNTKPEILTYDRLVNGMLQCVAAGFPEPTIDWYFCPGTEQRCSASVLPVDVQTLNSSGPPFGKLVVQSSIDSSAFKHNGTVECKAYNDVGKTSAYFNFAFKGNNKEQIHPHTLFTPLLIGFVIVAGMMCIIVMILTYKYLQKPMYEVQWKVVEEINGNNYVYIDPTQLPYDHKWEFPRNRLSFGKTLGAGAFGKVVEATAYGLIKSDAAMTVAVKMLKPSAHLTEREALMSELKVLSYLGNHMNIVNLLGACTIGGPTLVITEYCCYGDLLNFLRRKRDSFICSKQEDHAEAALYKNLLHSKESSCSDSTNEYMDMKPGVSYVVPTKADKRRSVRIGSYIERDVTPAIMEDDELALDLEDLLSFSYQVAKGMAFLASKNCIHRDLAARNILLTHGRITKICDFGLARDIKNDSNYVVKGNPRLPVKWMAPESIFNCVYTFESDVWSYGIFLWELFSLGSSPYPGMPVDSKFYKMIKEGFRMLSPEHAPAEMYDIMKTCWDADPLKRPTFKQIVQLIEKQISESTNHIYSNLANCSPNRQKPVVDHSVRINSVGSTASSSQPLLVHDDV

EPHB2 = molecular target: T5, EPHB2 (Homo sapiens, UniProt P29323); test: biochemical; conditions: read-out: Percent control
T5 sequence (P29323 19-1055): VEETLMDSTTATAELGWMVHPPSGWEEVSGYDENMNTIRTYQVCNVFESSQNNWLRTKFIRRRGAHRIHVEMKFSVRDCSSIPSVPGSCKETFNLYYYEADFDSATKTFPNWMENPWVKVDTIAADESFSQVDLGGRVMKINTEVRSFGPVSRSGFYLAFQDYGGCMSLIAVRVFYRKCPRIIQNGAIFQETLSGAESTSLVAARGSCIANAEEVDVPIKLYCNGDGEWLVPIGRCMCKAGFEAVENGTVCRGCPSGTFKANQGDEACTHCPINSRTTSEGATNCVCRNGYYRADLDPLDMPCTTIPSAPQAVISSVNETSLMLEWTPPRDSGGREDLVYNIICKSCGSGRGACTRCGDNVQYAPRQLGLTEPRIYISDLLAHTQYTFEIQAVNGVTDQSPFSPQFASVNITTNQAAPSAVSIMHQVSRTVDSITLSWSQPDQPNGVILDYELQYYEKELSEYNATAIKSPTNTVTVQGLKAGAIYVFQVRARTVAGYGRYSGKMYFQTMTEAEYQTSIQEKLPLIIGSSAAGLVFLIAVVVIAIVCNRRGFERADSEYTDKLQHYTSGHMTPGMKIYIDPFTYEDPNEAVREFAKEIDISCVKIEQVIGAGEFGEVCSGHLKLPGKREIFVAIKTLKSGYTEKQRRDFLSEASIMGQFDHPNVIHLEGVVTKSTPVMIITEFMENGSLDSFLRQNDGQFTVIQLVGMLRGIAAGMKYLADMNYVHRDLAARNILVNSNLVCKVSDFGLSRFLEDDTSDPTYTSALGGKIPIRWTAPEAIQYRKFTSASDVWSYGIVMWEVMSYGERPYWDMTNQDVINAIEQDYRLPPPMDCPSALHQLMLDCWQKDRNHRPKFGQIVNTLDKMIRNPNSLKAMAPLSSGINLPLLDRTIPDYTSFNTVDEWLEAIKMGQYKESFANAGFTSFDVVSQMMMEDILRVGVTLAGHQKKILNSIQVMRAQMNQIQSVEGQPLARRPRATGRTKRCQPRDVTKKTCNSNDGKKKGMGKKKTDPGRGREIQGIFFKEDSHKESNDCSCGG

PDGFRA [2] = molecular target: T3, PDGFRA; test: biochemical; conditions: read-out: Percent control

C#Cc1cccc(Nc2c3cc(OCCOC)c(OCCOC)cc3nc[n+]2[Pt@SP2-2]([NH3+])([NH3+])[Cl])c1 [2a, cisplatin-erlotinib]
Percent control (TYRO3): 85% | Percent control (YES): 100% | Percent control (FYN): 72% | Percent control (PDGFRA [1]): 100% | Percent control (DDR1): 74%

COc1cc2c(Nc3ccc(Br)cc3F)[n+]([Pt-2]3([Cl])[NH2+]C4CCCCC4[NH2+]3)cnc2cc1OCC1CCN(C)CC1 (stereo not shown) [3b, oxaliplatin-vandetanib]
Percent control (TYRO3): 0% | Percent control (YES): 23% | Percent control (FYN): 32% | Percent control (PDGFRA [1]): 5.7% | Percent control (DDR1): 0.3%

Cc1ccc(NC(=O)c2ccc(CN3CCN(C)CC3)cc2)cc1Nc1nccc(-c2cccnc2)[n+]1[Pt-2]1([Cl])[NH2+]C2CCCCC2[NH2+]1 (stereo not shown) [1b, oxaliplatin-imatinib]
Percent control (TYRO3): 80% | Percent control (YES): 100% | Percent control (FYN): 78% | Percent control (PDGFRA [1]): 1.2% | Percent control (EGFR(L747-T751del,Sins)): 76%

COc1cc2c(Nc3ccc(Br)cc3F)ncnc2cc1OCC1CCN(C)CC1 [Vandetanib, reference compound]
remaining binding at 10 µM (TYRO3; read-out: Percent control): 0.9% | remaining binding at 10 µM (YES; read-out: Percent control): 1.2% | remaining binding at 10 µM (DDR1; read-out: Percent control): 0.1% | remaining activity at 10 µM (KIT(A829P)): 0.3% | Percent control (EGFR(L747-T751del,Sins)): 0.1% | remaining activity at 10 µM (EPHB2): 4.2% | remaining activity at 10 µM (PDGFRA [2]): 2.2%

Cc1ccc(NC(=O)c2ccc(CN3CCN(C)CC3)cc2)cc1Nc1nccc(-c2cccnc2)n1 [Imatinib, reference compound]
Percent control (TYRO3): 100% | remaining activity at 10 µM (KIT(A829P)): 0.1% | Percent control (EGFR(L747-T751del,Sins)): 100% | remaining activity at 10 µM (EPHB2): 100% | remaining activity at 10 µM (PDGFRA [2]): 0.3%

C#Cc1cccc(Nc2ncnc3cc(OCCOC)c(OCCOC)cc23)c1 [Erlotinib]
remaining activity at 10 µM (KIT(A829P)): 100% | Percent control (EGFR(L747-T751del,Sins)): 0.0% | remaining activity at 10 µM (EPHB2): 100% | remaining activity at 10 µM (PDGFRA [2]): 15.3%
